Source: ChEMBL document CHEMBL1148856, “Thiazolone-acylsulfonamides as novel HCV NS5B polymerase allosteric inhibitors: convergence of structure-based drug design and X-ray crystallographic study” (Bioorg Med Chem Lett, 2007)

Experiment: Inhibition of HCV BK NS5B polymerase
Design: species or system Hepacivirus hominis

Point of comparison: `CCc1ccc(/C=C2\SC(N[C@H](C(=O)NS(=O)(=O)c3cccc(C(=O)OC)c3)c3ccc(F)cc3)=NC2=O)o1` (stereo in doubt), IC50 14 µM. Against it:
- CCc1ccc(/C=C2\SC(N[C@H](C(=O)NS(=O)(=O)c3ccc(C)cc3)c3ccc(F)cc3)=NC2=O)o1 (stereo in doubt) — 1.5-fold lower, 9.3 µM
- CCc1ccc(/C=C2\SC(N[C@H](C(=O)NS(=O)(=O)c3cccc(C(=O)O)c3)c3ccc(F)cc3)=NC2=O)o1 (stereo in doubt) — within 1.5-fold, 12 µM
- CCc1ccc(/C=C2\SC(N[C@H](C(=O)NS(=O)(=O)c3ccc([N+](=O)[O-])cc3)c3ccc(Cl)cc3Cl)=NC2=O)o1 (stereo in doubt) — 2.1-fold lower, 6.6 µM
- CCc1ccc(/C=C2\SC(N[C@H](C(=O)NS(=O)(=O)c3cccc([N+](=O)[O-])c3)c3ccc(F)cc3)=NC2=O)o1 (stereo in doubt) — within 1.5-fold, 15 µM
- CCc1ccc(/C=C2\SC(N[C@H](CS(=O)(=O)NC(=O)c3ccccc3)c3ccccc3)=NC2=O)o1 (stereo in doubt) — within 1.5-fold, 16 µM
